This passage reports GI50 and TGI results from PubChem BioAssay (NCI).

What all share (experiment): inhibition of tumour cell growth, NCI panel, 48 h
Experiment [1] deals with HOP-92 NSCLC.
Experiment [2] deals with A498 renal.
The test system of experiment [3] is SN12C renal.
The test system of experiment [4] is BT-549 breast.
Experiment [5] relates to NCI-H226 lung.
For experiment [6], the system named is DU-145 prostate.
In experiment [7] the test system is MDA-MB-231 breast.
In experiment [8] the test system is RXF 393 renal.
Experiment [9] deals with HCT-116 colon.
The subject of experiment [10] is SR leukemia.

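Compound exposure: 48 hours, 5 concentrations, 96-well plates. Abbreviation: GI50, concentration required for 50% inhibition of growth. Definition used: TGI = concentration required for complete inhibition of growth.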 A value given as a limit tells only on which side of the number the result lay.

With `O=C(NNc1nc2c(F)cccc2n2cccc12)c1cnccn1`, the GI50 in experiment [1] is 0.556 µM; in experiment [2] it was 2.18 µM; in experiment [3], 0.602 µM; in [4] it was 0.671 µM; in experiment [5] it was 0.522 µM; in [6] it was 0.657 µM. Moreover, the GI50 was 0.834 µM in experiment [7], 0.986 µM in experiment [8], 0.214 µM in experiment [9] and 0.392 µM in [10]. For the same molecule, the TGI in experiment [1] was found to be 45.1 µM; in [2], 10.3 µM; in experiment [3], 31.7 µM; in [4], 50.8 µM; in experiment [5] it was 7 µM; in experiment [6], 24.9 µM. Also, the TGI in experiment [7] is 24.8 µM; in experiment [8], 7.29 µM; in [9], 23.7 µM; in experiment [10] it was more than 37.7 µM.
For the molecule `Cc1cc2nc3c4cc(Cl)ccc4n(CCN(C)C)c3nc2cc1C`, the GI50 in [1] was 0.498 µM; in experiment [2], 1.29 µM; in [3] it was 1.61 µM; in experiment [4], 2.53 µM; in experiment [5], 1.98 µM; in experiment [6] it was 2.14 µM. In addition, the GI50 was 1.6 µM in [7], 1.59 µM in experiment [8], 0.7 µM in experiment [9] and 0.682 µM in [10]. Moreover, the TGI in experiment [1] was determined as 3.61 µM; in experiment [2], 2.63 µM; in [3] it was 8.45 µM; in experiment [4], 8.19 µM; in experiment [5], 4.24 µM; in [6], 4.62 µM. Moreover, the TGI in experiment [7] was 4.81 µM; in experiment [8], 3.32 µM; in experiment [9] it was 2.08 µM; in [10], 2.88 µM.
For `Cc1nn(-c2ccc(S(=O)(=O)[O-])cc2)c([O-])c1N=[N+](C)c1ccc(-c2ccc(N=Nc3ccc4c(S(=O)(=O)[O-])cc(S(=O)(=O)[O-])c(N)c4c3[O-])c([O-])c2)cc1[O-].[Cu+2].[Cu+2].[Na+]`, the GI50 in experiment [1], in experiment [2], in experiment [3], in experiment [4], in experiment [5] and in [6] was more than 100 µM each time. In addition, the GI50 in experiment [7], in experiment [8], in [9] and in experiment [10] was more than 100 µM in each case. Besides, the TGI in experiment [1], in experiment [2], in experiment [3], in [4], in experiment [5] and in experiment [6] was more than 100 µM throughout. Besides, the TGI in [7], in experiment [8], in [9] and in experiment [10] was more than 100 µM in each case.
Take `CCn1c(-c2nonc2N)nc2c(C#CCN)ncc(OCCCN)c21`: the GI50 is 4.64 µM in experiment [1]; more than 18.6 µM in experiment [2]; more than 25 µM in [3]; more than 25 µM in experiment [4]; more than 25 µM in experiment [5]; more than 25 µM in experiment [6]. Also, the GI50 in experiment [7], in experiment [8], in experiment [9] and in [10] was more than 25 µM in each case. Further, the TGI in [1], in [2], in [3], in [4], in experiment [5] and in experiment [6] was more than 25 µM throughout. Moreover, the TGI in experiment [7], in [8], in [9] and in experiment [10] was more than 25 µM in each case.
As to `COc1cc2ncn(-c3cc(OCc4ccccc4Cl)c(C(N)=O)s3)c2cc1OC`, the GI50 in experiment [1] was 3.8 µM; in experiment [2] it was 0.117 µM; in experiment [3], 1.48 µM; in experiment [4], 1.41 µM; in experiment [5], 0.801 µM; in experiment [6], 0.105 µM. Further, the GI50 is 0.247 µM in experiment [7], 0.102 µM in [8], 0.233 µM in experiment [9] and 0.113 µM in experiment [10]. In addition, the TGI in experiment [1] is more than 25 µM; in experiment [2], 3.21 µM; in [3], more than 25 µM; in experiment [4], more than 17 µM; in experiment [5] it was more than 25 µM; in [6], 0.511 µM. The TGI is 8.13 µM in experiment [7], 4.22 µM in experiment [8], more than 22.1 µM in [9] and more than 25 µM in experiment [10].
On to `O=C(Nc1nc2ccccc2s1)OCC(F)(F)F`, for which the GI50 in experiment [1] is 41.2 µM; in [2], more than 100 µM; in experiment [3], more than 100 µM; in [4], more than 100 µM; in [5] it was more than 100 µM; in experiment [6] it was more than 100 µM. Further, the GI50 in [7], in experiment [8], in experiment [9] and in experiment [10] was more than 100 µM in each case. Moreover, the TGI in experiment [1], in experiment [2], in [3], in [4], in [5] and in [6] was more than 100 µM throughout. For the same molecule, the TGI in experiment [7], in experiment [8], in experiment [9] and in experiment [10] was more than 100 µM in each case.
On to `Oc1ccccc1/C=N/Nc1ccc2ccccc2n1`, for which the GI50 in experiment [1] was 4.47 µM; in experiment [2] it was 7.03 µM; in experiment [3], 4.92 µM; in [4] it was 8.08 µM; in [5] it was 4.6 µM; in [6] it was 6.53 µM. In addition, the GI50 is 3.35 µM in experiment [7], 18.3 µM in experiment [8], 4.51 µM in [9] and 4.35 µM in experiment [10]. Also, the TGI in experiment [1] is 42.5 µM; in experiment [2] it was more than 100 µM; in experiment [3], more than 100 µM; in experiment [4], more than 100 µM; in experiment [5] it was more than 100 µM; in experiment [6], more than 100 µM. The TGI in experiment [7], in experiment [8], in experiment [9] and in experiment [10] was more than 100 µM each time.
